Data: ChEMBL document CHEMBL5727188, “GLS1 inhibitors for treating disease” (2019)

Target: T1, Glutaminase kidney isoform, mitochondrial (Homo sapiens, UniProt O94925)
T1 sequence (O94925 whole entry): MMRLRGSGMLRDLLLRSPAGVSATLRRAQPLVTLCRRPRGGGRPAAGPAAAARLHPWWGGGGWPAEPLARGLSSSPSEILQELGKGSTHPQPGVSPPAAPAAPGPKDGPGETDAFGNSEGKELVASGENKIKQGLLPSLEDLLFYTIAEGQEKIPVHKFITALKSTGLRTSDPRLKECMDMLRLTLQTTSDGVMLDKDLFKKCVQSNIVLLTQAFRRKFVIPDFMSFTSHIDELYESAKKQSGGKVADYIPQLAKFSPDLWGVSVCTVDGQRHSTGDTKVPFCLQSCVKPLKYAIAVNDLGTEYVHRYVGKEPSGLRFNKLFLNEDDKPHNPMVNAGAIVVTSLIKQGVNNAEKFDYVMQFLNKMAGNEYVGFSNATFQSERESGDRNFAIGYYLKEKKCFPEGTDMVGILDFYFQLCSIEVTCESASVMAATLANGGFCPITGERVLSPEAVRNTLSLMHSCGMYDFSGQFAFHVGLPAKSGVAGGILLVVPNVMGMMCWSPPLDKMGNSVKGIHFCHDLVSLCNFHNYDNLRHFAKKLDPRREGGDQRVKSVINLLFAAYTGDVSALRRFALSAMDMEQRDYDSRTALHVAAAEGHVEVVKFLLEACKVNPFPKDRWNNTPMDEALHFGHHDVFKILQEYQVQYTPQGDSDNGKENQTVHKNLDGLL
Assay: Enzymatic Activity Assay: The inhibition of purified recombinant human GAC by varying concentrations of inhibitors is assessed via a dual-coupled enzymatic assay. The glutamate produced by the glutaminase reaction is used by glutamate oxidase to produce α-ketoglutarate, ammonia, and hydrogen peroxide, with this hydrogen peroxide subsequently being used by horseradish peroxidase to produce resorufin in the presence of Amplex UltraRed. The assay buffer consisted of 50 mM Hepes (pH 7.4), 0.25 mM EDTA and 0.1 mM Triton X-100. GAC was incubated with potassium phosphate (10 minutes at room temperature) prior to incubation with inhibitor (10 minutes at room temperature). The final reaction conditions were as follows: 2 nM GAC, 50 mM potassium phosphate, 100 mU/mL glutamate oxidase (Sigma), 1 mM glutamine (Sigma), 100 mU/mL horseradish peroxidase (Sigma), 75 μM Amplex UltraRed (Life Technologies), and 1% (v/v) DMSO. The production of resorufin was monitored on a Perkin Elmer Envision plate reader (excitation 530 nm, emission 590 nm) either in a kinetics or endpoint mode (at 20 minutes). IC50 values were calculated using a four-parameter logistic curve fit.

IC50 [nM]	SMILES
< 100	O=C(NCc1cccc(OC(F)(F)F)c1)c1cn(CCCCn2cc(C(=O)NCc3ccc(C(F)(F)F)cn3)nn2)nn1
< 100	COc1cncc(CNC(=O)c2cn(CC(F)CCc3nnc(NC(=O)Cc4cccc(OC(F)(F)F)c4)s3)nn2)c1 (stereo not drawn)
< 100	O=C(NCc1cc(C2CC2)ccn1)c1cn(CCC(F)Cn2cc(C(=O)NCc3cccc(C4CC4)c3)nn2)nn1 (stereo not drawn)
